Measured values from a compilation of properties of binary mixtures (doi:10.1016/j.molliq.2017.12.017).

Test: xn = mol fraction of the nth substance listed
Conditions: 101 kPa

CC[n+]1ccn(C)c1.O=S(=O)([O-])C(F)(F)F + COCCO
speed of sound [m/s]
Conditions | 298.15 K | 303.15 K | 308.15 K | 313.15 K | 318.15 K
x1 = 0.0531 | 1359 | – | 1327 | 1310.8 | 1294.7
x1 = 0.1062 | 1367 | 1351.6 | 1336.4 | – | 1305.4
x1 = 0.1999 | – | 1365.9 | 1351.6 | 1337.2 | –
x1 = 0.2935 | 1392 | 1378.7 | – | 1351.8 | 1338.3
x1 = 0.3958 | 1403.5 | 1390.9 | 1378.3 | 1365.7 | –
x1 = 0.4452 | – | 1396.2 | 1383.9 | 1371.6 | 1359.3
x1 = 0.5036 | 1413.9 | 1402 | 1390 | 1378 | 1366.1
x1 = 0.5752 | 1419.9 | 1408.2 | 1396.6 | 1385 | –
x1 = 0.6452 | – | 1413.5 | 1402.1 | 1390.8 | 1379.4
x1 = 0.7142 | 1429.2 | 1417.9 | 1406.7 | 1395.5 | 1384.3
x1 = 0.8049 | – | 1422.5 | 1411.3 | – | 1389.2
x1 = 0.8751 | 1436.5 | 1425.1 | 1413.9 | 1402.8 | 1391.8
x1 = 0.9522 | – | 1427 | 1415.7 | 1404.5 | –
x1 = 1 | 1435.8 | – | 1413.5 | 1402.4 | 1391.4

COCCO + CC[n+]1ccn(C)c1.O=S(=O)([O-])C(F)(F)F
x2 = 0
Conditions | speed of sound [m/s]
298.15 K | 1342.3
308.15 K | 1308.2
313.15 K | 1290.8
318.15 K | 1273.6
